Molecules are shown by their SMILES. Calls of active or inactive are those of the source.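 Rule for the calls: active = cell-killing curve, signal falling, whose fitted AC50 is at most twice the top tested dose; inconclusive = flat fit with a moderate signal drop, or a poor fit; inactive = the rest.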

The first assay has as its system HEK293T viability, ATP luminescence (CellTiter-Glo), 72 h. Briefly: ATP-based viability loss in HEK293T cells – cell-based, CellTiter-Glo luminescence, dry powder samples, set 14, cytotoxicity control, dose response (AID 743442).
Details: not given
(Cellular ATP, detected with luciferase, serves as a proxy for viable cell number.)
On to `CCN(CC)CCCNC(=O)c1ccc(OCC(=O)Nc2ccccc2C(F)(F)F)c(OC)c1`, for which the AC50 was > 52 µM (inactive).
In the case of `O=C(CSc1c2c(nc3ccc(Cl)cc13)CCCC2)Nc1ccc(Cl)cc1`, the AC50 was > 52 µM (inactive).
Still for that read-out and setting: under `COc1cc(CNCCCN2CCOCC2)ccc1OCC(=O)Nc1cccc(C(F)(F)F)c1` stands > 52 µM (inactive); under `O=C(CSc1c2c(nc3ccc(Cl)cc13)CCCC2)N1CCN(Cc2ccccc2)CC1`, > 52 µM (inactive).
Take `O=C(COc1ccc(C(=O)NC2CCCCC2)cc1)Nc1cccc(C(F)(F)F)c1`: the AC50 was > 52 µM (inactive).
Still for that read-out and setting: under `CN(C(=O)COc1ccccc1C(=O)NCCc1ccccc1)c1ccccc1` stands > 52 µM (inactive).

Test system in the next assay: not listed separately
The assay is described as above. The note with it: HEK293T viability, ATP luminescence (CellTiter-Glo), 72 h; at 12 µM (top of the series).
Consider `CCN1CCCC1CNC(=O)CSc1c2c(nc3ccc(Cl)cc13)CCCC2` (stereo not given), for which the activity change, negative = cytotoxicity was -4.32% (inactive).

The same assay, now with this note: HEK293T viability, ATP luminescence (CellTiter-Glo), 72 h; at 26 µM (top of the series).
Consider `O=C(CSc1c2c(nc3ccc(Cl)cc13)CCCC2)NC1CC1`, for which the activity change, negative = cytotoxicity was -2.74% (inactive).
In the case of `Cn1c(=O)cc(SCC(=O)NCc2ccco2)c2ccccc21`, the activity change, negative = cytotoxicity is 0.641% (inactive).
For `O=C(CSc1c2c(nc3ccc(Cl)cc13)CCCC2)NCc1ccc(F)cc1`, the activity change, negative = cytotoxicity is -14.3% (inactive).
The same measure, in the same setting: under `CN(CCNC(=O)CSc1c2c(nc3ccc(Cl)cc13)CCCC2)Cc1ccccc1` stands -3.21% (inactive); under `CN(C(=O)COc1ccccc1C(=O)Nc1ccccc1)c1ccccc1`, -12.4% (inactive).
On to `COCCNC(=O)CSc1c2c(nc3ccc(Cl)cc13)CCCC2`, for which the activity change, negative = cytotoxicity is -7.42% (inactive).
Still for that read-out and setting: with `CCOc1ccc(NC(=O)COc2ccc(C(=O)N3CCC(C(N)=O)CC3)cc2OC)cc1` the figure was -5.36% (inactive); with `Cc1ccc(CNC(=O)CSc2c3c(nc4cc(Cl)ccc24)CCCC3)o1`, -11.4% (inactive); with `CN(C(=O)COc1ccccc1C(N)=O)c1ccccc1`, -5.5% (inactive).
As for `O=C(CSc1c2c(nc3ccc(Cl)cc13)CCCC2)NCC1CCCO1` (stereo not given), the activity change, negative = cytotoxicity is -12.2% (inactive).
Same read-out and setting: with `O=C(CSc1c2c(nc3ccc(Cl)cc13)CCCC2)N1CCCCC1` the figure was -5.3% (inactive).
Still for that read-out and setting: under `O=C(CSc1c2c(nc3ccc(Cl)cc13)CCCC2)NCc1cccs1` stands -5.31% (inactive).
For the compound `Cc1cccc(NC(=O)CSc2c3c(nc4ccc(Cl)cc24)CCCC3)n1`, the activity change, negative = cytotoxicity was -9.51% (inactive).
`Cc1ccc(CNC(=O)CSc2c3c(nc4ccc(Cl)cc24)CCCC3)cc1`: the activity change, negative = cytotoxicity was -7.44% (inactive).
Consider `CN(CCOc1ccccc1)C(=O)c1ccc(OCC(=O)Nc2cccc(C(F)(F)F)c2)cc1`, for which the activity change, negative = cytotoxicity was -0.662% (inactive).
For `Cc1cccc(CCNC(=O)CSc2c3c(nc4ccc(Cl)cc24)CCCC3)c1`, the activity change, negative = cytotoxicity is -5.98% (inactive).
Same read-out and setting: under `CN(C)c1ccc(NC(=O)COc2ccccc2C(=O)N2CCOCC2)cc1` stands -0.871% (inactive).
With `O=C(CSc1c2c(nc3cc(Cl)ccc13)CCCC2)N(Cc1ccco1)C1CCCC1`, the activity change, negative = cytotoxicity was -4.09% (inactive).
Same read-out and setting: with `COc1ccc(OCCNC(=O)c2ccccc2OCC(=O)Nc2ccc(NC(C)=O)cc2)cc1` the figure was -1.7% (inactive); with `O=C(CSc1c2c(nc3ccc(Cl)cc13)CCCC2)NCc1ccccn1`, -4.85% (inactive).
Same read-out and setting: with `CC(C)NC(=O)CSc1c2c(nc3ccc(Cl)cc13)CCCC2` the figure was -3.4% (inactive).
Take `O=C(CSc1c2c(nc3ccc(Cl)cc13)CCCC2)NCc1ccc2c(c1)OCO2`: the activity change, negative = cytotoxicity was 0.001% (inactive).
Regarding `O=C(CSc1c2c(nc3ccc(Cl)cc13)CCCC2)Nc1ccccc1`, the activity change, negative = cytotoxicity is -10.7% (inactive).
Same read-out and setting: under `O=C(COc1ccc(C(=O)NCC2CCCO2)cc1)Nc1cccc(C(F)(F)F)c1` (stereo not given) stands -6.65% (inactive).
In the case of `Cn1cc(SCC(=O)NCc2ccco2)c2ccccc21`, the activity change, negative = cytotoxicity was -10.8% (inactive).
On the same count and under the same terms, with `COc1ccc(NC(=O)CSc2c3c(nc4ccc(Cl)cc24)CCCC3)cc1` the figure was -8.96% (inactive).
For `CN(C(=O)COc1ccc(Cl)cc1C(N)=O)c1ccccc1`, the activity change, negative = cytotoxicity was 1.16% (inactive).
Still for that read-out and setting: with `O=C(CSc1c2c(nc3ccc(Cl)cc13)CCCC2)NC1CCCC1` the figure was -7.43% (inactive); with `CC(Sc1c2c(nc3ccc(Cl)cc13)CCCC2)C(=O)NCc1ccco1` (stereo not given), -3.71% (inactive); with `CCN(CC)C(=O)CSc1c2c(nc3ccc(Cl)cc13)CCCC2`, 0.809% (inactive).
On the same count and under the same terms, with `O=C(CSc1c2c(nc3ccc(Cl)cc13)CCCC2)NC1CCN(Cc2ccccc2)CC1` the figure was -3.75% (inactive); with `O=C(CSc1c2c(nc3ccc(Cl)cc13)CCCC2)N1CCC(N2CCCCC2)CC1`, -3.26% (inactive); with `O=C(O)CSc1c2c(nc3cc(C(=O)NCc4cccs4)ccc13)CCCC2`, -5.37% (inactive).
Turning to `O=C(COc1ccccc1C(=O)NCc1ccccc1)Nc1ccccc1`, the activity change, negative = cytotoxicity was -5.85% (inactive).
Still for that read-out and setting: under `O=C(CSc1c2c(nc3ccc(Cl)cc13)CCCC2)NCCN1CCOCC1` stands -9.3% (inactive).
Consider `COc1ccc(CNC(=O)CSc2c3c(nc4ccc(Cl)cc24)CCCC3)cc1`, for which the activity change, negative = cytotoxicity is -6.81% (inactive).
Still for that read-out and setting: under `COCCN(Cc1ccco1)C(=O)CSc1c2c(nc3cc(Cl)ccc13)CCCC2` stands -8.9% (inactive); under `O=C(CSc1c2c(nc3ccc(Cl)cc13)CCCC2)NCC1(c2ccccc2)CCCC1`, -8.09% (inactive).
As for `Cc1ccc(CNC(=O)CSc2c3c(nc4ccc(Cl)cc24)CCCC3)o1`, the activity change, negative = cytotoxicity was -8.3% (inactive).
As to `O=C(CSc1cccc2cccnc12)NCc1ccco1`, the activity change, negative = cytotoxicity is -4.54% (inactive).
On the same count and under the same terms, with `CCOC(=O)C1CCN(C(=O)c2ccc(OCC(=O)Nc3ccc(OCC)cc3)c(OC)c2)CC1` the figure was -2.45% (inactive).
Same read-out and setting: under `COc1cc(C(=O)NCCCN(C)C)ccc1OCC(=O)Nc1cccc(C(F)(F)F)c1` stands -18.3% (inactive); under `O=C(CSc1c2c(nc3ccc(Cl)cc13)CCCC2)NCCN1CCN(Cc2ccccc2)CC1`, -10.3% (inactive); under `CCCCOc1ccc(NC(=O)COc2ccccc2C(=O)NCCOc2ccccc2)cc1`, -30.8% (inactive).
On the same count and under the same terms, under `O=C(COc1ccc(C(=O)N2CCN(C(=O)C3CC3)CC2)cc1)Nc1cccc(C(F)(F)F)c1` stands -7.18% (inactive).
With `O=C(CSc1ccc2ccccc2n1)NCc1ccco1`, the activity change, negative = cytotoxicity was -3.39% (inactive).
Take `O=C(CSc1c2c(nc3ccc(Cl)cc13)CCCC2)NCCCc1ccccc1`: the activity change, negative = cytotoxicity was -6.44% (inactive).
For the compound `O=C(CSc1c2c(nc3ccc(Cl)cc13)CCCC2)N1CCNC1=O`, the activity change, negative = cytotoxicity was -2.06% (inactive).
The same measure, in the same setting: under `O=C(CSc1c2c(nc3ccc(Cl)cc13)CCCC2)NCc1cccnc1` stands -3.63% (inactive); under `O=C(COc1ccccc1C(=O)NCCOc1ccc(Cl)cc1)Nc1cccc(Cl)c1`, -30.7% (inactive); under `CCOC(=O)N1CCC(NC(=O)CSc2c3c(nc4ccc(Cl)cc24)CCCC3)CC1`, -0.517% (inactive).
On to `COc1ccc(N(Cc2cccs2)C(=O)COc2ccccc2C(=O)Nc2ccccc2)cc1`, for which the activity change, negative = cytotoxicity was -7.68% (inactive).
Still for that read-out and setting: under `Cc1ccc(NC(=O)COc2ccccc2C(=O)NCCN(C)C)cc1` stands -1.02% (inactive); under `CCCNC(=O)CSc1c2c(nc3ccc(Cl)cc13)CCCC2`, -1.94% (inactive).
As for `CC1(C)CC(NC(=O)c2ccc(OCC(=O)Nc3cccc(C(F)(F)F)c3)cc2)CC(C)(C)N1`, the activity change, negative = cytotoxicity is -24.7% (inactive).
In the case of `COC(=O)CCCN(C)C(=O)c1ccc(OCC(=O)Nc2cccc(OC)c2)cc1`, the activity change, negative = cytotoxicity is -4.85% (inactive).
On to `O=C(CSc1c2c(nc3ccc(Cl)cc13)CCCC2)N1CCOCC1`, for which the activity change, negative = cytotoxicity was -5.19% (inactive).
For `CCOC(=O)C1CCN(C(=O)c2ccc(OCC(=O)N3CCOCC3)c(OC)c2)CC1`, the activity change, negative = cytotoxicity was -7.89% (inactive).
The same measure, in the same setting: under `O=C(CSc1c2c(nc3ccccc13)CCCC2)NCc1ccco1` stands -6.44% (inactive); under `O=C(CSc1c2c(nc3ccc(Cl)cc13)CCCC2)NCc1ccco1`, -6.1% (inactive).
With `NC(=O)C1CCN(C(=O)c2ccc(OCC(=O)Nc3cccc(C(F)(F)F)c3)cc2)CC1`, the activity change, negative = cytotoxicity was -5.23% (inactive).
The same measure, in the same setting: with `Cc1ccc2nc(Cl)cc(SCC(=O)NCc3ccco3)c2c1` the figure was -11.1% (inactive); with `O=C(COc1ccc(C(=O)N2CCC2)cc1)Nc1cccc(C(F)(F)F)c1`, -6.82% (inactive).

As a reminder, the AC50 is the midpoint of the concentration-response curve, whichever way the signal moves.

Source of the values: PubChem BioAssay AID743442 (Broad Institute, 2014).
